Measured values published in patent US20220257646A1, “COMPOSITIONS AND METHODS FOR TREATING SKIN CONDITIONS” (The Regents of the University of California, priority 2019, published 2022).

Test system: P. acnes strains
Assay: Porphyrin production by P. acnes strains in culture media (iron/cobalt supplemented or depleted)
Type: cell-based, Propionibacterium acnes

Row | Compound | porphyrin production (acne associated P. acnes strains (FIG. 4)) | chelator effect on porphyrin production (iron added back to iron depleted (chelated) media, P. acnes strains (FIG. 4)) | porphyrin production (iron depletion, acne associated P. acnes strains (FIG. 6)) | porphyrin production (iron supplemented in the media, P. acnes strains (FIG. 1)) | effect of iron depletion on porphyrin production (vitamin B12 supplemented conditions, acne associated P. acnes strains (FIG. 6)) | porphyrin production (depletion of cobalt, P. acnes (FIG. 5))
1 | [Fe] [iron] | reduces porphyrin production | diminishes chelator effect | increases porphyrin production | low porphyrin production | remains | –
2 | [Co] [cobalt] | – | – | – | – | – | significantly promoted the porphyrin production
